# In article PMC12369479 (Journal of Experimental Botany, 2025):
# Tests used:
# WT ZmADK3 = WT ZmADK3 (Zea mays, UniProt A0A1D6E5Z5); experiment: Binding affinity by MST
# PpADK1 = target: T1, PpADK1 (Physcomitrium patens, UniProt O49923); experiment: Binding affinity by microscale thermophoresis (MST); set-up: species or system Physcomitrella patens; conditions: 50 mM HEPES pH 7.5, 1 mM MgCl2, first or only binding event, read-out: KD
# T1 construct: made in house; host or cells: E. coli T7 Express Iq
# T1 sequence (O49923 whole entry): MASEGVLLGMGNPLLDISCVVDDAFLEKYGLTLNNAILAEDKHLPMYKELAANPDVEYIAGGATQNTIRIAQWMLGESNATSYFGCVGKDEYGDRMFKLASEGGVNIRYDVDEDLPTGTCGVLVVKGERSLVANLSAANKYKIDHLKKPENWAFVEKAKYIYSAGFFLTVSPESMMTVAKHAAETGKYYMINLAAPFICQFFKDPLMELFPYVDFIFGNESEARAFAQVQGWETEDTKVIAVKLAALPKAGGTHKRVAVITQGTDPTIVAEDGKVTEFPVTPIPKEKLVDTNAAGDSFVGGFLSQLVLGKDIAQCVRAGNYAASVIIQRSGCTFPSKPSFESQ
# Method: (§1) The microscale thermophoresis (MST) method was used to determine the binding affinity of various ribosides for ZmADK2 and PpADK1. Proteins were fluorescently labeled with RED-tris-NTA dye (www.nanotemper-technologies.com) using a 1:1 dye/protein molar ratio. The labeled protein was adjusted to 100–300 nM in 50 mM HEPES buffer pH 7.5, 1 mM MgCl2, and 0.2% Tween. Measurements were performed in premium capillaries on a Monolith NT.115 instrument at 30 °C with 5 s/30 s/5 s laser off/on/off times, respectively, with continuous sample fluorescence recording. Thermal stability was measured by nano-differential scanning fluorimetry on a Prometheus NT.48 instrument (www.nanotemper-technologies.com) in various buffers covering a pH (7.0–9.5) and temperature range (25–95 °C), with a heating rate of 1 °C min^–1, and using NT melting control software. Protein unfolding was measured by detecting the temperature-induced change in tryptophan fluorescence intensity at emission wavelengths of 330±5 nm and 350±5 nm. The melting temperature (Tm) was deduced from the maximum of the first derivative of the fluorescence ratios F350/F330.
# ZmADK3 E225A variant [1] = target: T2, ZmADK3 E225A variant (Zea mays, UniProt A0A1D6E5Z5, E225A); experiment: Binding affinity by MST
# T2 sequence (A0A1D6E5Z5 entry or part of it E225A): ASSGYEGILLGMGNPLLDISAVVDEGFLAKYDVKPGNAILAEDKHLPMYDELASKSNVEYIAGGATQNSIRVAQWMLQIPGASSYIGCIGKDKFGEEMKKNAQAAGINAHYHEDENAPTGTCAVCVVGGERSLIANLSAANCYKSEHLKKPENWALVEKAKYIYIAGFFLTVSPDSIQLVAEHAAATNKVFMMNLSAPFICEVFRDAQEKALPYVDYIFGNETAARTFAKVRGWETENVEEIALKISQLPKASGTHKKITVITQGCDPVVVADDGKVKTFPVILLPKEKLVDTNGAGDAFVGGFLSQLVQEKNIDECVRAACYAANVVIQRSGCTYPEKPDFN
# Method: (§2) All ZmADK3 mutants were cloned by 30 cycle PCRs using tail-to-tail oriented phosphorylated primers, with the mutation being located at the 5′ end of one of the primers. The following mutants were cloned using the primers given in Supplementary Table S1: D19A, R132A, N222A, E225A, N295A, and D299A. The products were treated with DpnI restriction enzyme, gel purified, and ligated using T4 DNA ligase (www.thermofisher.com). Clones were transformed into T7 express I^qE. coli competent cells.
# as §1
# ZmADK3 R132A variant = ZmADK3 R132A variant (Zea mays, UniProt A0A1D6E5Z5, R132A); experiment: Binding affinity by MST
# Chain of ZmADK3 R132A variant (A0A1D6E5Z5 entry or part of it R132A): as the sequence (A0A1D6E5Z5 entry or part of it E225A) above, with R131A, A224E counted along it
# Method: as §2, §1
# ZmADK3 D299A variant = ZmADK3 D299A variant (Zea mays, UniProt A0A1D6E5Z5, D299A); experiment: Binding affinity by MST
# Chain of ZmADK3 D299A variant (A0A1D6E5Z5 entry or part of it D299A): as the sequence (A0A1D6E5Z5 entry or part of it E225A) above, with A224E, D298A counted along it
# Method: as §2, §1
# ZmADK3 N295A variant [2] = target: T3, ZmADK3 N295A variant (Zea mays, UniProt A0A1D6E5Z5, N295A); experiment: Binding affinity by MST
# T3 sequence (A0A1D6E5Z5 entry or part of it N295A): as the sequence (A0A1D6E5Z5 entry or part of it E225A) above, with A224E, N294A counted along it
# Method: as §2, §1
# ZmADK3 N222A variant [3] = target: T4, ZmADK3 N222A variant (Zea mays, UniProt A0A1D6E5Z5, N222A); experiment: Binding affinity by MST
# T4 sequence (A0A1D6E5Z5 entry or part of it N222A): as the sequence (A0A1D6E5Z5 entry or part of it E225A) above, with N221A, A224E counted along it
# Method: as §2, §1
# ZmADK3 D19A variant = ZmADK3 D19A variant (Zea mays, UniProt A0A1D6E5Z5, D19A); experiment: Binding affinity by MST
# Chain of ZmADK3 D19A variant (A0A1D6E5Z5 entry or part of it D19A): as the sequence (A0A1D6E5Z5 entry or part of it E225A) above, with D18A, A224E counted along it
# Method: as §2, §1
# all three maize ADKs = experiment: ADK activity, coupled reaction (summary for maize enzymes); format: biochemical, Zea mays; conditions: saturating 100 µM concentration
# Method: (§3) Substrate analogs were purchased from Sigma-Aldrich (www.sigmaaldrich.com). The ADK activity was measured spectrophotometrically on an Agilent 8453 UV-Vis spectrophotometer (www.agilent.com) at 30 °C using a coupled reaction with pyruvate kinase (PK) and lactate dehydrogenase (LDH) (www.sigmaaldrich.com) ([Blondin et al., 1994]). In this assay, PK converts ADP produced by ADK and phosphoenolpyruvate (PEP) to pyruvate. Subsequently, LDH then converts pyruvate to lactate using the coenzyme NADH, with the conversion monitored at 340 nm. The reaction was conducted in 50 mM Tris–HCl buffer at pH 7.5, containing 50 mM KCl, 6 mM MgCl2, 300 µM PEP, 200 µM NADH, 10 mM ATP, 2 U of PK, and 2.5 U of LDH, using various nucleoside substrates. Kinetic constants were determined using GraphPad Prism 8.0 software (www.graphpad.com). Each measurement was performed six times using repetitive purified enzymes. The activities of all five ADKs were also measured by HPLC ([Moffatt et al., 1991]). The reaction mixture comprised 50 mM Tris–HCl pH 7.5, 5 mM MgCl2, 0.5 mM DTT, 30 mM NaF, 5 mM ATP, 40 µM substrate, and 2–150 ng of purified ADK, depending on the isoform. The reaction was incubated at 30 °C for up to 1 h. […]
# ZmADK2 and PpADK1 = experiment: Binding affinity by MST (summary for both enzymes); set-up: species or system Zea mays, Physcomitrella patens; conditions: range over ZmADK2 and PpADK1
# Method: as §1
# ZmADK3 E225A variant [4] = target: T2, ZmADK3 E225A variant; experiment: ADK activity, coupled reaction with PK and LDH; format: biochemical; conditions: 100 µM Ado, 10 mM ATP, 30 °C
# Method: as §2
# (§4) Substrate analogs were purchased from Sigma-Aldrich (www.sigmaaldrich.com). The ADK activity was measured spectrophotometrically on an Agilent 8453 UV-Vis spectrophotometer (www.agilent.com) at 30 °C using a coupled reaction with pyruvate kinase (PK) and lactate dehydrogenase (LDH) (www.sigmaaldrich.com) ([Blondin et al., 1994]). In this assay, PK converts ADP produced by ADK and phosphoenolpyruvate (PEP) to pyruvate. Subsequently, LDH then converts pyruvate to lactate using the coenzyme NADH, with the conversion monitored at 340 nm. The reaction was conducted in 50 mM Tris–HCl buffer at pH 7.5, containing 50 mM KCl, 6 mM MgCl2, 300 µM PEP, 200 µM NADH, 10 mM ATP, 2 U of PK, and 2.5 U of LDH, using various nucleoside substrates. Kinetic constants were determined using GraphPad Prism 8.0 software (www.graphpad.com). Each measurement was performed six times using repetitive purified enzymes. The activities of all five ADKs were also measured by HPLC ([Moffatt et al., 1991]). The reaction mixture comprised 50 mM Tris–HCl pH 7.5, 5 mM MgCl2, 0.5 mM DTT, 30 mM NaF, 5 mM ATP, 40 µM substrate, and 2–150 ng of purified ADK, depending on the isoform. The reaction was incubated at 30 °C for up to 1 h. […] Similarly, the conversion of cytokinin ribosides to monophosphates was followed on a LiChrosphere 60 RP-Select B (5 µm) LiChroCART column 125-4 column equilibrated with 10 mM triethylamine at pH 5.4 plus 10% methanol, and stepwise eluted with 100% methanol.
# ZmADK3 N295A variant [5] = target: T3, ZmADK3 N295A variant; experiment: ADK activity, coupled reaction with PK and LDH; format: biochemical; conditions: 100 µM Ado, 10 mM ATP, 30 °C
# Method: as §2, §4
# ZmADK3 N222A variant [6] = target: T4, ZmADK3 N222A variant; experiment: ADK activity, coupled reaction with PK and LDH; format: biochemical; conditions: 100 µM Ado, 10 mM ATP, 30 °C
# Method: as §2, §4
# all five ADKs = experiment: ADK kinetics, coupled reaction (summary for all isoforms); format: biochemical, Zea mays, Physcomitrella patens; conditions: range over all five ADKs
# Method: as §3
# ZmADK2 [7] = target: T5, ZmADK2 (Zea mays, UniProt B4FFH8, T4S); experiment: ADK activity, coupled reaction with PK and LDH; format: biochemical; conditions: ZmADK2; 100 µM substrate; 10 mM ATP; pH 7.5; 30 °C
# T5 sequence (B4FFH8 1-342 T4S): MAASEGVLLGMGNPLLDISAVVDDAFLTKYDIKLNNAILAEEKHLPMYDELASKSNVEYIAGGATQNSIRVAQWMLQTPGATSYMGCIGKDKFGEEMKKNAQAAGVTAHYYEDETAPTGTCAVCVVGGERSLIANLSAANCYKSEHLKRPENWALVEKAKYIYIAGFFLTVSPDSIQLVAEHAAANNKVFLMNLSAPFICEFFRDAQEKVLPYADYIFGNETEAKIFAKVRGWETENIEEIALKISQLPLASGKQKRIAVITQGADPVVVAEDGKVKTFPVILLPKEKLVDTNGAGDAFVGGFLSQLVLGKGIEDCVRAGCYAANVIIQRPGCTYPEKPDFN
# Method: as §4
# ZmADK2 [8] = target: T5, ZmADK2; experiment: Binding affinity by microscale thermophoresis (MST); conditions: MST
# Method: as §1
# rabbit ADK = system: rabbit ADK; set-up: method as in Miller et al., 1979a; conditions: ref Miller et al., 1979a; cited from earlier work
# Chain of WT ZmADK3 (A0A1D6E5Z5 2-344): as the sequence (A0A1D6E5Z5 entry or part of it E225A) above, with A224E counted along it
structure (smiles),measurement,setting,value
"Nc1ncnc2c1ncn2[C@@H]1O[C@H](CO)[C@@H](O)[C@H]1O [Ado, adenosine]",Kd,WT ZmADK3,0.28 ± 0.05 µM
same,Kd,PpADK1,0.7 µM
same,Kd,ZmADK3 E225A variant [1],0.32 ± 0.09 µM
same,Kd,ZmADK3 R132A variant,0.27 ± 0.04 µM
same,Kd,ZmADK3 D299A variant,10.3 ± 4.1 µM
same,lower affinity for Ado than the WT,ZmADK3 D299A variant; D299A variant of ZmADK3,~ 37 times
same,Kd,ZmADK3 N295A variant [2],274 ± 10 µM
same,Kd,ZmADK3 N222A variant [3],0.3 ± 0.13 µM
same,Kd,ZmADK3 D19A variant,989 ± 161 µM
same,activity,all three maize ADKs,30–40 nkat mg^–1
same,Kd,ZmADK2 and PpADK1,0.4 to 0.7 µM
same,Specific activity,ZmADK3 E225A variant [4],1.9±0.4 nkat mg^–1
same,Specific activity,ZmADK3 N295A variant [5],10.1±0.1 nkat mg^–1
same,Specific activity,ZmADK3 N222A variant [6],13.4±0.7 nkat mg^–1
same,Km,all five ADKs,0.5 to 0.7 µM
same,Specific activity,ZmADK2 [7],40.3±1.4 nmol s^–1 mg^–1
same,Kd,"ZmADK2 [8]; KD, 50 mM HEPES pH 7.5, 1 mM MgCl2, first or only binding event",0.4 ± 0.14 µM
same,Kd,"ZmADK2 [8]; second KD value, KD(2), second binding event (ATP site)",~1500 µM
same,Kd,"ZmADK2 [8]; second KD value, second binding event (ATP site)",1480 ± 230 µM
same,Km,rabbit ADK,0.4 µM
